Experimental data published in patent US5932483A, “Synthetic peptide and its uses” (Northwestern University, priority 1996, dated 1999).
Several values for one entry are separate records, joined by “and”; a condition that tells them apart may be missing. Equal values may be shown once. No end group written: not given here.

Experiments:
[1] = system: guinea pig hearts transplanted into C6 deficient PVG rats; assay: Heterotopic heart transplantation; type: in vivo, rat; details: pump 2ML4 (15.6 mg CBP2) plus i.v. 15.6 mg on day 2; 2 rats, individual values
Method: Four to six week old guinea pigs (GP, Harlan, Indianapolis, Ind.) hearts were transplanted into C6 deficient PVG rats (B&K, Kent, Wash.) by a modification of the technique described by Ono and Lindsay (Journal of Thoracic Cardiovascular Surgery, 57, 225, 1969). Seven of the rats receiving GP hearts were not treated, 8 additional rats receiving GP hearts were treated with a single pre-transplant intravenous injection of a 3 ml cocktail of CBP3 [SEQ ID NO:4] (0.67 mg/ml) and 1.03 mg/ml of AEK [SEQ ID NO:5]. CBP3, 15.4 mg, was dissolved in 1.1 ml of 60% DMF in H2 O and AEK, 10 mg, was dissolved on 0.5 ml H2 O. Two hundred μl of CBP3 and 100 μl of AEK were added to 2.7 ml of 1:5 diluted (in PBS) heat-inactivated PVG C6 deficient rat serum. The GP transplanted hearts were monitored several times daily, and the times noted when the hearts stopped beating.
Two additional PVG C6 deficient rats were transplanted with GP hearts.
In a separate experiment, two C6 deficient PVG rats were transplanted with GP hearts.

[2] = system: PAP binding to solid phase CBP2; assay: Elution or inhibition of PAP binding to the CBP2 column by solution peptide; design: species or system rabbit
Method: An additional 6 ml of C1q buffer was used to wash the column followed by 3 ml of 2% (v/v) acetic acid and then with 6 ml of C1q buffer to completely wash the column.
The sample was then eluted with 21 ml C1q buffer followed by 3 ml of 2% (v/v) acetic acid and then 6 ml C1q buffer. The column fractions were assayed for the presence of peroxidase as described above in Part A, and the concentration of PAP was calculated from the standard curve data.
This was not the case, however, since similar concentrations were used for column elution as for the pre-incubation studies. […] Thus, the effect of aggregates, if they formed, was of little significance.

[3] = system: human C1q binding to PAECs; assay: Immunohistochemical staining of PAECs for binding of human C1q; type: cell-based; details: CBP2 1.2 mM
Method: PAECs (1×10^4) in 1 ml of CCM were added to each well of a 4-chamber culture slide (Labtek, Nunc, Naperville, Ill.), and the cells were grown to confluence (incubation for 3 days at 37° C. in 5% CO2 -95% air). The medium was removed, and the slide was washed with PBS (10 mM phosphate buffered saline, pH 7.4, containing 120 mM NaCl and 2.7 mM KCl, Sigma Chemical Co.) in a swirling motion for 5 sec. This was repeated with distilled water and 100% ethanol. The slide was tapped dry and immersed in pre-chilled (-20° C.) acetone for 20 min and then air dried.
HI-HS was added to the wells, and the slide was incubated for 15 min at 37° C. to allow human IgG and IgM antibodies to bind to PAEC epitopes. The HI-HS was removed, and the wells were washed 3 times with PBS. C1q or C1q plus peptide in PBS containing 1% bovine serum albumin (BSA, Sigma Chemical Co.) (PBSA) was then added, and the slide was incubated for 15 min at room temperature. The solutions were removed, and the wells were washed 3 times with PBS. Blocking serum was added [10% donkey serum (The Binding Site, Birmingham, England) in PBS], and the slide was incubated for 20 minutes at room temperature. […] Staining of the cells was analyzed on a Zeiss Axioskop (Carl Zeiss, Oberkochen, Germany) with a wide band FITC filter.

[4] = molecular target: binding of rabbit Ig-HRP to solid phase C1q; assay: Inhibition of binding of Ig-HRP to solid phase C1q; details: Ig-HRP 1:100 in C1q buffer, 25° C.; read-out: 50% inhibition concentration, Ig-HRP binding to solid phase C1q
Method: C1q (gift of Dr. Lawrence Potempa, Immtech International Inc., Evanston, Ill.) diluted to 10 μg/ml in coating buffer was placed in the wells of a microtiter plate (100 μl/well) and incubated for 2 hours at 25° C. The uncoated surfaces of the wells were blocked by adding 340 μl PBSC and incubating the plate for 1 hour at 25° C., followed by washing 3 times with PBSC. Dilutions of Ig-HRP in C1q buffer (50 mM Tris, pH 7.2, 27 mM NaCl, 1 mM CaCl2, 0.01% (wt/v) Thimerosal) were incubated in the wells (100 μl/well) for 1 hour at 25° C. followed by washing 3 times with C1q buffer. OPD substrate buffer was then added (100 μl/well), and the colored product was measured at 414 nm in a Titertek Multiskan plate reader.
C1q was coated onto the surface of the wells of a microtiter plate as described in Part C. […] OPD substrate buffer (100 μl/well) was then added and the colored product measured at 414 nm in a Titertek Mutiskan plate reader.

Sequence of PAP binding to solid phase CBP2 (P01870 whole entry): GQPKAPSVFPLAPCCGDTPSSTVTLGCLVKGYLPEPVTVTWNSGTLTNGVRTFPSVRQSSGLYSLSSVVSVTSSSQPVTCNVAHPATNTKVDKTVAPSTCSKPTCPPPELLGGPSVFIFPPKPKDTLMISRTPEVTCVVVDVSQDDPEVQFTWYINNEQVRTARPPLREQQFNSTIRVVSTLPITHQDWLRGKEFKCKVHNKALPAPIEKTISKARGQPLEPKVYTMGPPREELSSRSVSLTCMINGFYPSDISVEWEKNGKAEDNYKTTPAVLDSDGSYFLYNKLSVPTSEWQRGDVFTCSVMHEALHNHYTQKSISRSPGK

Sequence: LEQGENVFLQATLLC [CBP2, C1q B chain residues 189-200 plus Leu Leu Cys at the carboxyl terminus]
- Graft Survival [1]: 4 days and 5 days
- PAP binding to solid phase CBP2 after pre-incubation with peptide ([2]; 0.1 mM peptide, 1 hour 25° C., PAP 20 μg/ml): dramatic loss of PAP binding
- elution of bound PAP from CBP2 column by peptide wash ([2]; 3 ml of 336.2 μg/ml CBP2 or equimolar LHRH): small but significant PAP peak which was eluted from the column
- inhibition of PAP binding to CBP2 column ([2]; PAP pre-incubated with 156 μg/ml CBP2): approximately 40%
- C1q binding to PAECs (immunohistochemical staining) [3]: only trace binding of C1q
- IC50 [4]: ~10 µM
